Active and inactive are the calls of the source. No cut-off for these calls is given here.
Columns and labels:
[1] = tested on: Mus musculus; assay: Antiinflammatory activity in ICR mouse assessed as reversal in LPS-induced weight loss at 12.5 to 200 mg/kg, ip administered for 5 days prior to LPS-challenge measured from day 9 to 11 relative to control; format: functional, organism-based
[2] = tested on: RAW264.7; assay: Effect on ERK level in mouse LPS-induced RAW264.7 cells at 0.1 to 0.4 uM incubated for 2 hrs prior to LPS-challenge measured after 30 mins by Western blot analysis; format: functional, cell-based
[3] = tested on: RAW264.7; assay: Effect on JNK level in mouse LPS-induced RAW264.7 cells at 0.1 to 0.4 uM incubated for 2 hrs prior to LPS-challenge measured after 30 mins by Western blot analysis; format: functional, cell-based
[4] = tested on: RAW264.7; assay: Effect on MAPK p38 level in mouse LPS-induced RAW264.7 cells at 0.1 to 0.4 uM incubated for 2 hrs prior to LPS-challenge measured after 30 mins by Western blot analysis; format: functional, cell-based
[5] = tested on: RAW264.7; assay: Cytotoxicity against mouse RAW264.7 cells at 80 uM after 24 hrs by MTT assay; format: cell-based; details: raw264.7, 24 h
[6] = tested on: RAW264.7; assay: Antiinflammatory activity in mouse RAW264.7 cells assessed as inhibition of LPS-stimulated IL-6 mRNA expression incubated for 2 hrs prior to LPS-challenge measured after 8 hrs by quantitative real time PCR analysis relative to control; format: functional, cell-based
[7] = tested on: RAW264.7; assay: Ratio of glycyrrhetinic acid to compound activity in mouse RAW264.7 cells; format: functional
[8] = tested on: RAW264.7; assay: Antiinflammatory activity in mouse RAW264.7 cells assessed as inhibition of NO production after 24 hrs in presence of mifepristone; format: functional, cell-based
[9] = tested on: Mus musculus; assay: Antiinflammatory activity in ICR mouse assessed as reversal in LPS-induced weight loss at 12.5 to 200 mg/kg, ip administered for 5 days prior to LPS-challenge measured up to day 8 relative to control; format: functional, organism-based
[10] = tested on: Mus musculus; assay: Antiinflammatory activity in ICR mouse assessed as protection against LPS-induced sepsis at 50 mg/kg, ip administered for 5 days prior to LPS-challenge measured after 2 hrs; format: functional, organism-based; set-up: dose 50 mg/kg
[11] = tested on: RAW264.7; assay: Inhibition of ERK phosphorylation in mouse LPS-induced RAW264.7 cells at 0.1 to 0.4 uM incubated for 2 hrs prior to LPS-challenge measured after 30 mins by Western blot analysis; format: cell-based
[12] = tested on: RAW264.7; assay: Inhibition of JNK phosphorylation in mouse LPS-induced RAW264.7 cells at 0.1 to 0.4 uM incubated for 2 hrs prior to LPS-challenge measured after 30 mins by Western blot analysis; format: cell-based
[13] = target: MAP kinase p38 (Mus musculus) (UniProt P47811+O08911+Q9WUI1+Q9Z1B7); assay: Inhibition of MAPK p38 in mouse LPS-induced RAW264.7 cells at 0.1 to 0.4 uM incubated for 2 hrs prior to LPS-challenge measured after 30 mins by Western blot analysis; format: cell-based
[14] = target: T1, NF-kappa-B inhibitor alpha (Mus musculus) (UniProt Q9Z1E3); assay: Inhibition of IkappaBalpha in mouse RAW264.7 cells assessed as inhibition of LPS-stimulated NF-kappaB p65 subunit translocation to nucleus at 0.1 to 0.4 uM incubated for 2 hrs prior to LPS-challenge measured after 30 mins by Western blot analysis; format: cell-based
T1 sequence (whole entry): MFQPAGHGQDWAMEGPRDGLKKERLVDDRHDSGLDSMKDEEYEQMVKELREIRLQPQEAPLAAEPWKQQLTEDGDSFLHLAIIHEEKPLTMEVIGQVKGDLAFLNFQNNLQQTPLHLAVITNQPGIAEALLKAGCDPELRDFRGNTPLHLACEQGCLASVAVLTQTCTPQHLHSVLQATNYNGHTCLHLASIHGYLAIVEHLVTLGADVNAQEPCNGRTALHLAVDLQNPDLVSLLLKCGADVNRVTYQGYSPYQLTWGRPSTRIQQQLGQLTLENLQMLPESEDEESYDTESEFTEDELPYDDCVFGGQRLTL

[15] = target: T1, NF-kappa-B inhibitor alpha (Mus musculus); assay: Inhibition of IkappaBalpha degradation in mouse LPS-induced RAW264.7 cells assessed as increase in cytosolic IkappaB level at 0.1 to 0.4 uM incubated for 2 hrs prior to LPS-challenge measured after 30 mins by Western blot analysis; format: cell-based
[16] = target: T1, NF-kappa-B inhibitor alpha (Mus musculus); assay: Inhibition of IkappaB phosphorylation in mouse LPS-induced RAW264.7 cells at 0.1 to 0.4 uM incubated for 2 hrs prior to LPS-challenge measured after 30 mins by Western blot analysis; format: cell-based
[17] = tested on: RAW264.7; assay: Antiinflammatory activity in mouse RAW264.7 cells assessed as inhibition of LPS-stimulated TNF-alpha mRNA expression at 0.2 to 0.4 uM incubated for 2 hrs prior to LPS-challenge measured after 8 hrs by quantitative real time PCR analysis; format: functional, cell-based
[18] = tested on: RAW264.7; assay: Antiinflammatory activity in mouse RAW264.7 cells assessed as inhibition of LPS-stimulated IL-1beta mRNA expression at 0.1 to 0.4 uM incubated for 2 hrs prior to LPS-challenge measured after 8 hrs by quantitative real time PCR analysis; format: functional, cell-based
[19] = tested on: RAW264.7; assay: Antiinflammatory activity in mouse RAW264.7 cells assessed as inhibition of LPS-stimulated IL-6 mRNA expression at 0.1 to 0.4 uM incubated for 2 hrs prior to LPS-challenge measured after 8 hrs by quantitative real time PCR analysis; format: functional, cell-based
[20] = tested on: RAW264.7; assay: Antiinflammatory activity in mouse RAW264.7 cells assessed as inhibition of LPS-induced iNOS mRNA expression at 0.1 to 0.4 uM incubated for 2 hrs prior to LPS-challenge measured after 8 hrs by qPCR analysis; format: functional, cell-based
[21] = tested on: RAW264.7; assay: Antiinflammatory activity in mouse RAW264.7 cells assessed as inhibition of LPS-induced iNOS protein expression incubated for 2 hrs prior to LPS-challenge measured after 24 hrs by Western blot analysis; format: functional, cell-based
[22] = tested on: RAW264.7; assay: Cytotoxicity against mouse LPS-challenged RAW264.7 cells at 80 uM after 24 hrs by MTT assay; format: cell-based; details: raw264.7, 24 h
[23] = tested on: RAW264.7; assay: Antiinflammatory activity in mouse RAW264.7 cells assessed as inhibition of LPS-induced NO production incubated for 2 hrs prior to LPS-challenge measured after 24 hrs by Griess method; format: functional, cell-based
[24] = tested on: RAW264.7; assay: Antiinflammatory activity in mouse RAW264.7 cells assessed as inhibition of LPS-induced NO production at 50 uM incubated for 2 hrs prior to LPS-challenge measured after 24 hrs by Griess method; format: functional
[25] = tested on: Mus musculus; assay: Antiinflammatory activity in ICR mouse assessed as protection against LPS-induced sepsis at 12.5 to 200 mg/kg, ip administered for 5 days prior to LPS-challenge measured after 2 hrs post last dose; format: functional, organism-based

## CC1(C)C(=O)C(C#N)=C[C@]2(C)C3=CC=C4[C@@H]5C[C@@](C)(C#N)CC[C@]5(C)CC[C@@]4(C)[C@]3(C)CC[C@@H]12
[1]
  Activity: Active
[2]
  Activity: inactive
[3]
  Activity: inactive
[4]
  Activity: inactive
[5]
  Activity: Non-toxic
[6]
  inhibition: inactive
[7]
  Ratio: 1000
[8]
  inhibition: Active
[9]
  Activity: inactive
[10]
  Activity: Active
[11]
  inhibition: Active
[12]
  inhibition: Active
[13]
  inhibition: Active
[14]
  inhibition: Active
[15]
  inhibition: Active
[16]
  inhibition: Active
[17]
  inhibition: Active
[18]
  inhibition: Dose-dependent effect
[19]
  inhibition: Dose-dependent effect
[20]
  inhibition: Active
[21]
  inhibition: Dose-dependent effect
[22]
  Activity: Non-toxic
[23]
  IC50: 200 nM
[24]
  inhibition at 50 µM: 99.1%
[25]
  Activity: inactive
